Values quoted from earlier work in US8945526B2, “Amphiphilic substance, and drug delivery system and molecular imaging system using the same” (Shimadzu Corporation, priority 2006, dated 2015).

Details: ICG singly administered

removal from the body: removed from a body in one hour
Compound: CC1(C)C(/C=C/C=C/C=C/C=C2\N(CCCCS(=O)(=O)O)c3ccc4ccccc4c3C2(C)C)=[N+](CCCCS(=O)(=O)[O-])c2ccc3ccccc3c21 [ICG, indocyanine green]
